Three molecules from US6338962B1, “Use of a non-mammalian DNA virus to express an exogenous gene in a mammalian cell” (priority 1996, dated 2002) can be followed below.

The subject of experiment [1] is HepG2 cells. Briefly: De novo expression test with inhibitors, β-galactosidase in extracts. Format: cell-based, human.
Experimental: Second, HepG2 cells were infected with the RSV-lacZ virus and then cultured in the presence of the protein synthesis inhibitor cycloheximide.
To determine whether endosome acidification was necessary for baculovirus-mediated gene transfer into mammalian cells, HepG2 cells were infected with RSV-lacZ AcMNPV in the presence of chloroquine, a lysomotropic agent. HepG2 cells were exposed to AcMNPV virus in media containing or lacking inhibitor for 90 minutes, then the virus-containing media were removed and replaced with fresh media containing or lacking inhibitors as listed.
At one day post-infection, the cells were harvested and extracts were assayed for β-galactosidase activity and protein content. Each value in the table represents the average of three independent assays, with the amount of β-galactosidase produced by the RSV-lacZ AcMNPV virus in the absence of inhibitors assigned a value of 100%. β-galactosidase activity was normalized for protein content of each extract.
A further experiment deals with Hep G2. Kind of experiment: Comparison of promoter strengths, β-galactosidase ONPG assay. Format: cell-based, human. Conditions: for Promoter strength, β-galactosidase: moi 100, 24 hours, mock background subtracted. The source says:
Baculovirus-mediated Gene Transfer is Enhanced by Butyrate: This example illustrates that butyrate enhances the ability of a baculovirus to express an exogenous gene in a mammalian cell. Five transfer plasmids containing different mammalian promoters were created, as diagrammed in FIG. 18. These vectors were constructed using pSV/BV, a modified version of the baculovirus transfer plasmid pBacPAK9 (Clontech), containing an altered polylinker and SV40 splice and polyadenylation signals. pSV/BV was constructed by restriction of pBacPAK9 with NotI, treatment with T4 DNA polymerase to create blunt ends, and self-ligation to remove the NotI site. A new NotI site was then added by ligation of the linker p[…] into the SmaI site. Finally, SV40 splice and polyadenylation sequences were added by digestion of a variant of pRSVglobin with BglII-BamHI, and insertion of the 850 bp fragment into the BamHI site of the modified BacPAK9, yielding pSV/BV. The human cytomegalovirus immediate early promoter, 758 bp HindIII-XbaI fragment, was excised from PCMV-EBNA (Invitrogen) at HindIII, BamHI and inserted into the HindIII, BamHI sites of pBluescript (SKII^+), yielding plasmid pCMV-SKII^+. The promoter was then excised from CMV-SK II^+ at the XhoI, BamHI sites and inserted into the XhoI, BglII sites of pSV/BV, yielding plasmid pCMV/BV. The 500 bp mouse phosphoglycerate kinase (PGK) promoter was prepared by cutting pKJ1-neo (Tybulewicz et al., 1991, Cell 65: 1153-1163) with EcoRI and made blunt with T4 DNA polymerase to remove the EcoRI site. The resulting pKJ1 plasmid lacking the EcoRI site was amplified by pfu polymerase chain reaction using the primers 5′ […]3′ (SEQ ID NO: 5) and 5′ […]3′ (SEQ ID NO: 6). The amplified PGK promoter was then digested with XhoI and BglII and inserted into the same sites of pSV/BV yielding PKJ1/BV. The 345 bp rat β-actin promoter was excised from pINA (6) at BglII, BamHI and inserted into the BglII site of pSV/BV yielding pβ-actin/BV. The 2.3 kb albumin enhancer and 700 bp albumin promoter were excised from pGEMAlbSVPA (Zaret et al., 1988, Proc. Natl. Acad. Sci. 85:9076-9080) at NaeI, NsiI and inserted into the SmaI, PstI sites of pSV/BV. The RSVlacZ transfer plasmid used (also referred to herein as the Z4 virus) is described above. A 3.0 kb Lac Z cassette was inserted into the NotI site of all of the plasmids constructed (See FIG. 18).
Recombinant viruses were generated by contransfection of the baculovirus transfer vectors with linear BP6 viral DNA (Clontech) into Sf21 cells. The recombinant viruses were purified through three rounds of plaque isolation and amplified on Sf21 cells. The amplified viruses were concentrated by ultracentrifugation as described above and titered by a 96-well method on Sf21 insect cells (O'Reilly et al., 1992, Baculovirus Expression Vectors: A Laboratory Manual, W.H. Freeman, New York, N.Y.).
The human hepatocellular carcinoma cell line HepG2 was infected with each recombinant virus at a multiplicity of infection of 100. Two million cells were infected in a final volume of 1 ml Eagle's Minimum Essential Medium in a 60 mm tissue culture dish. The infection was allowed to proceed for two hours, then 4 ml of complete medium was added to the cells. In a second series of HepG2 infections, the conditions of the first infections were repeated with the exception that after the infection had proceeded for 2 hours 25 μl of sodium butyrate (100 mM) was added to the cells with 1.5 ml complete media. […]

Another experiment concerns Rat Hepatocytes. Described as above. Conditions: Rat Hepatocytes −butyrate. Type of experiment: cell-based.
The subject of experiment [2] is HepG2 cells. Kind of experiment: X-gal histochemical staining of infected cells. Type of experiment: cell-based, human. Conditions: moi 100. As for the experimental part:
[…] Adherent cell lines were seeded one day prior to infection. Cells were exposed to virus in 2 ml of medium for 90 minutes, and then the virus-containing medium was removed and replaced with fresh medium. Mock-infected cells were treated with 2 ml medium lacking the viral inoculum.
For histochemical staining of β-galactosidase activity, cells were fixed in 2% (w/v) formaldehyde-0.2% (v/v) […] in PBS for 5 minutes. After several rinses with PBS, the cells were stained by the addition of 0.5 mg/ml of X-gal (BRL) in PBS for 2-4 hours at 37° C.

`CCN(CC)CCCC(C)Nc1ccnc2cc(Cl)ccc12` (stereo not drawn) [chloroquine]: the “effect on de novo expression of β-galactosidase” value in the experiment with HepG2 cells [1] (25 μM continuously present during and after exposure to virus) is “completely prevented”. Further, the “effect on β-galactosidase expression” value in the experiment on HepG2 cells [1] (added at 90 minutes after exposure to the virus) is “only partial inhibition”.

For the molecule `CCCC(=O)[O-].[Na+]` [sodium butyrate, reference compound], the “effect of addition after infection on β-galactosidase expression” value in the experiment on Hep G2 (HepG2, added 2 hours after start of infection) is “detectable levels of β-galactosidase expression with all of the promoters tested”.

Consider Albumin, for which the “Promoter strength, β-galactosidase” value with Rat Hepatocytes was 0.15 ± 0.08 Units/mg; with Hep G2 (Hep G2 +butyrate), 0.08 ± 0.04 Units/mg; with Hep G2 (Hep G2 −butyrate), 0.0 ± 0.0 Units/mg; with Hep G2 (Hep G2 −butyrate, listed as albumin) it was “no activity above background levels”. Besides, in the experiment with HepG2 cells [2], the “X-gal staining of cells not treated with butyrate” value is on record as “positively stained cells were detected”. In the experiment on Hep G2 (HepG2), the “change of gene expression after treatment with butyrate” value is listed as “increased gene expression”.
